The target in the experiment is T1, Recombinant human TLR7 (Homo sapiens, UniProt Q9NYK1).
T1 construct: expressed in transfected cells; host or cells: HEK293 cell line stably expressing the pNiFty2-SEAP reporter plasmid; TLR7 in pUNO vector, blasticidin selection
T1 sequence (Q9NYK1 27-1049): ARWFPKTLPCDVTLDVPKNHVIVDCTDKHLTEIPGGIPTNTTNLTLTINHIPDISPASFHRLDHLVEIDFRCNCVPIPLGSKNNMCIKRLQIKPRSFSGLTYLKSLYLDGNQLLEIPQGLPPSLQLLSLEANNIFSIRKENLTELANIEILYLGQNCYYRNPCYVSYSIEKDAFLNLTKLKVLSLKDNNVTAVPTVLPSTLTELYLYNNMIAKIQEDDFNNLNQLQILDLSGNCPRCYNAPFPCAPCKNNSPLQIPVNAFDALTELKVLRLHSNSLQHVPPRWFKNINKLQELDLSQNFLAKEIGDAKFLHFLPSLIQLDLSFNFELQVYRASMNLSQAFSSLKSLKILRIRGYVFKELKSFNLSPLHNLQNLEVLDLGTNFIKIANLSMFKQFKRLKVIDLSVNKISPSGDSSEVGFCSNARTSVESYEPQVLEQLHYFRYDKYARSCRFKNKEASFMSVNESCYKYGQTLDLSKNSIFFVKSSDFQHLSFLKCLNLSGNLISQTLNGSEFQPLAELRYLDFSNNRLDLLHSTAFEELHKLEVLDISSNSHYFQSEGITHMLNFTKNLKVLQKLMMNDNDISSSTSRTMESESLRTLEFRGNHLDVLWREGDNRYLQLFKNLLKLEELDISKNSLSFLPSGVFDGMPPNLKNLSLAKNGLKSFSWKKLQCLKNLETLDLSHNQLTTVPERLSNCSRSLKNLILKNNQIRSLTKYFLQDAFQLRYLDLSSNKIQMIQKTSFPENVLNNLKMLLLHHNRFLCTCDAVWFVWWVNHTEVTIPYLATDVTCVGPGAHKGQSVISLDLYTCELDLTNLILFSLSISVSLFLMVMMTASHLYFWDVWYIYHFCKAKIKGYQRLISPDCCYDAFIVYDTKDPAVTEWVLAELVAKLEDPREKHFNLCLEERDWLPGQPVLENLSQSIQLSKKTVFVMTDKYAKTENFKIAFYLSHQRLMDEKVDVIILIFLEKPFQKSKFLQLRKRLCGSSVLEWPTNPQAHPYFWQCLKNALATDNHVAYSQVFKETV
Put plainly: Human TLR7 assay (SEAP reporter in HEK293 cells). The following applies: HEK293 cells expressing human TLR7 and pNiFty2-SEAP reporter; overnight incubation at 37° C., 0.1% (v/v) DMSO. The class given is cell-based. The text has this:
Recombinant human TLR7 was stably expressed in a HEK293 cell line already stably expressing the pNiFty2-SEAP reporter plasmid; integration of the reporter gene was maintained by selection with the antibiotic zeocin. The most common variant sequence of human TLR7 (represented by the EMBL sequence AF240467) was cloned into the mammalian cell expression vector pUNO and transfected into this reporter cell-line. Transfectants with stable expression were selected using the antibiotic blasticidin. In this reporter cell-line, expression of secreted alkaline phosphatase (SEAP) is controlled by an NFkB/ELAM-1 composite promoter comprising five NFkB sites combined with the proximal ELAM-1 promoter. TLR signaling leads to the translocation of NFkB and activation of the promoter results in expression of the SEAP gene. TLR7-specific activation was assessed by determining the level of SEAP produced following overnight incubation of the cells at 37° C. with the standard compound in the presence of 0.1% (v/v) dimethylsulfoxide (DMSO). Concentration dependent induction of SEAP production by compounds was expressed as the log of the minimal effective concentration of compound to induce SEAP release (pMEC).

Structures are written as SMILES.

For the compound `CCCCOc1nc(N)c2[nH]c(=O)n(CCCCN(Cc3cccc(CC(=O)OC)c3)C3CCN(C)CC3)c2n1` [Example 10, Methyl (3-{[[4-(6-amino-2-butoxy-8-oxo-7,8-dihydro-9H-purin-9-yl)butyl] (1-methylpiperidin-4-yl)amino]methyl}phenyl)acetate], the “pMEC (log of the minimal effective concentration of compound to induce SEAP release)” value is recorded as “pMEC 8.4”.
For the compound `CCCCOc1nc(N)c2[nH]c(=O)n(CCCN(Cc3cccc(CC(=O)OC)c3)C3CCN(CC#N)CC3)c2n1` [Example 14, Methyl [3-({[3-(6-amino-2-butoxy-8-oxo-7,8-dihydro-9H-purin-9-yl)propyl][1-(cyanomethyl)piperidin-4-yl]amino}methyl)phenyl]acetate], the “pMEC (log of the minimal effective concentration of compound to induce SEAP release)” value is on record as “pMEC 7.7”.
On to `CCCCOc1nc(N)c2[nH]c(=O)n(CCCN(Cc3cccc(CC(=O)OC)c3)C3CCN(CCCC(=O)OC(C)(C)C)CC3)c2n1` [Example 17, tert-Butyl 4-(4-{[3-(6-amino-2-butoxy-8-oxo-7,8-dihydro-9H-purin-9-yl)propyl][3-(2-methoxy-2-oxoethyl)benzyl]amino}piperidin-1-yl)butanoate], for which the “pMEC (log of the minimal effective concentration of compound to induce SEAP release)” value was “pMEC 9.1”.
